Tests used:
E. coli ATCC 25922 [1] = test system: E. coli ATCC 25922; set-up: unit not given beside the values; conditions: colistin alone, unexplained range under the value, probably reference range; cited from earlier work
[2] = test system: Pseudomonas aeurginosa ATCC 27853; experiment: Combination MIC of colistin for antibiotic adjuvant potential; type: cell-based; set-up: unit not given beside the values; conditions: colistin alone; Pseudomonas ATCC 27853
Procedure: (§1) The MIC of colistin was determined against the bacteria specified below, by itself or in the presence of 1 ug/ml or 10 ug/ml of a compound disclosed herein (nd=not determined): […]

E. coli ATCC 25922 [3] = experiment: as above; type: cell-based; set-up: unit not given beside the values; conditions: colistin alone
Procedure: as §1

[4] = test system: Acinetobacter Baumannii ATCC 19606; experiment: as above; type: cell-based; set-up: unit not given beside the values; conditions: colistin alone; Acinetobacter ATCC 19606
Procedure: as §1

[5] = test system: Klebsiella pneumoniae (Colistin Sensitive) MMX214; experiment: as above; type: cell-based; conditions: colistin alone; K. pneumoniae colistin sensitive MMX214
Procedure: as §1

[6] = test system: Klebsiella pneumoniae (Colistin Resistant) MMX8390; experiment: as above; type: cell-based; conditions: colistin alone; K. pneumoniae colistin resistant MMX8390
Procedure: as §1

In the case of colistin, the “MIC of colistin, range in parentheses” value (E. coli ATCC 25922 [1]) is listed as “(0.25-2)”, the MIC of colistin [2] is listed as 0.25 and the MIC of colistin (E. coli ATCC 25922 [3]) is listed as 0.25. For the same substance, the MIC of colistin [4] was 0.25, the MIC of colistin [5] was 2 and the MIC of colistin [6] was 16.

Source: patent US11306067B2, “Diphenyl substituted thiophene-2-amide derivatives and pharmaceutical compositions thereof useful as antimicrobial” (DENOVAMED INC., priority 2018, dated 2022)
